Reference: ChEMBL document CHEMBL1201862, “PubChem BioAssay data set” (2004)
Calls of active or inactive are those of the source.

Tests used:
[1] = biological target: T1, Oxysterols receptor LXR-beta (Homo sapiens, UniProt P55055); test: LXR agonists, Gal4 luciferase reporter, dose response, counter-screen for ssDAF-12 agonist project, cell-based, luminescence, HEK293, S. stercoralis campaign (AID 720737); format: functional; conditions: read-out: IC50 (the source's name)
T1 sequence (P55055 whole entry): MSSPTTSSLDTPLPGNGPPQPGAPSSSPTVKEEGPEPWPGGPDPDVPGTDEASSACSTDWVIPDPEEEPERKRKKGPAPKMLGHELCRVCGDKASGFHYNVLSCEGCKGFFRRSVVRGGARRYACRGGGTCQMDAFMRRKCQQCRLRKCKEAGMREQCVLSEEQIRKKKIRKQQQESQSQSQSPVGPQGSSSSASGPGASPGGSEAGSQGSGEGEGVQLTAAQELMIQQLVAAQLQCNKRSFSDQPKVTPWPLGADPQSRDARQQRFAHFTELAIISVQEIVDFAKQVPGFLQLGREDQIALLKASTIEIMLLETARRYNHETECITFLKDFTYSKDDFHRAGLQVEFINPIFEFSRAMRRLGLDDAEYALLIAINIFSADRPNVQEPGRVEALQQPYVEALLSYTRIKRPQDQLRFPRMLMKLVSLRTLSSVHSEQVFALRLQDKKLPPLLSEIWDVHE

[2] = Luminescence-based cell-based high throughput dose response assay to identify activators of the DAF-12 from the parasite S. stercoralis (ssDAF-12).; format: functional
[3] = Luminescence Cell-Based Dose Response HTS to Identify Activators of Luciferase Translation or Activity in H4 […] Cells. [Related pubchem assays: 1829 (Project Summary), 1814 (Primary HTS)]; format: functional
[4] = Luminescence Cell-Based Dose Response to Identify Activators of Luciferase Translation or Activity in H4-C Neuroglioblastoma Cells. [Related pubchem assays: 1829 (Project Summary), 1814 (Primary HTS)]; format: functional
H4 = test: Luminescence Cell-Based Dose Response HTS to Identify Activators of 5'UTR Stem-Loop Driven Prion Protein mRNA Translation in H4 Neuroglioblastoma Cells. [Related pubchem assays: 1829 (Project Summary), 1814 (Primary HTS)]; format: functional; conditions: Homo sapiens
[5] = Luminescence Cell-Based Dose Confirmation to Identify Activators of 5'UTR Stem-Loop Driven Alpha-Synuclein mRNA Translation in H4 Neuroglioblastoma Cells. [Related pubchem assays: 1829 (Project Summary), 1814 (Primary HTS)]; format: functional
[6] = Luminescence Cell-Based Dose Confirmation HTS to Identify Activators of 5'UTR Stem-Loop Driven Alpha-Synuclein mRNA Translation in H4 Neuroglioblastoma Cells. [Related pubchem assays: 1829 (Project Summary), 1814 (Primary HTS)]; format: functional
[7] = Luminescence Cell-Based Dose Response to Identify Activators of 5'UTR Stem-Loop Driven Prion Protein mRNA Translation in H4-C Neuroglioblastoma Cells. [Related pubchem assays: 1829 (Project Summary), 1814 (Primary HTS)]; format: functional
[8] = biological target: T2, Sentrin-specific protease 8 (Homo sapiens, UniProt Q96LD8); format: functional
T2 sequence (Q96LD8 whole entry): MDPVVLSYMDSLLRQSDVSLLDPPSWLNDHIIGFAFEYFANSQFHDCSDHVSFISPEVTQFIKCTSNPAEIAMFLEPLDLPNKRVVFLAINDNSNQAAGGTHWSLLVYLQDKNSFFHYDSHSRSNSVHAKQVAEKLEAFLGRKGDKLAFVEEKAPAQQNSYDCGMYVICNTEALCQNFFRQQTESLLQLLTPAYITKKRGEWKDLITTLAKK

[9] = biological target: T2, Sentrin-specific protease 8; format: functional; remark: listed apart in the source
Caspase-6 = biological target: T3, Caspase-6 (Homo sapiens, UniProt P55212); test: inhibition of CASP6 peptide cleavage – biochemical, VEID-R110 fluorescence, cherry-pick, dose response (AID 720632)
T3 sequence (P55212 whole entry): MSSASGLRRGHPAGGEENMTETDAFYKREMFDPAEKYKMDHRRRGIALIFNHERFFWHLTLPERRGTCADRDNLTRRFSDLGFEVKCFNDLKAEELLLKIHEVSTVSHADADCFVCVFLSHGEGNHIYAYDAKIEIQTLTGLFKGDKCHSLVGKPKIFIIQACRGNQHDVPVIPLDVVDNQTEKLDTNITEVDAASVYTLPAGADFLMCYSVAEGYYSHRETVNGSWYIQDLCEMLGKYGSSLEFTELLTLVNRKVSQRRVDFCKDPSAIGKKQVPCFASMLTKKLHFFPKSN

[10] = potency of ADAM10 substrate cleavage blockers – biochemical, QFRET, dose response (AID 743254);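 further: ADAM10 enzyme with the DM2 quenched FRET peptide as substrate; EDANS fluorescence gain as the protease cuts the substrate; inhibitor potency against ADAM10 proteolytic activity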
[11] = biological target: Disintegrin and metalloproteinase domain-containing protein 17 (Homo sapiens, UniProt P78536); test: inhibition of ADAM17 substrate cleavage – biochemical, quenched FRET substrate, counter-screen for ADAM10 exosite inhibitor project, dose response (AID 743253)
[12] = general mammalian cell viability loss – inhibitor set, cherry-pick, set 2, cytotoxicity control for miR-122 modulator project, dose response (AID 720697); format: functional, cell-based
[13] = biological target: Eukaryotic translation initiation factor 4E (Mus musculus, UniProt P63073); test: blockers of eIF4G binding by eIF4E – biochemical, TR-FRET, dose response (AID 855); format: functional;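 further: potency for disrupting eIF4E binding to eIF4GI seen as loss of FRET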
Large T antigen = Large T antigen (Simian virus 40, UniProt P03070); format: functional, Betapolyomavirus macacae;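 further: Confirmatory-stage PubChem screen for compounds that inhibit SV40 T antigen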
Nonstructural protein 1 = Nonstructural protein 1 (Influenza A virus, UniProt Q194T2); format: functional, Influenza A virus (A/California/07/2009(H1N1))
[14] = biological target: T4, Rac GTPase-activating protein 1 (Homo sapiens, UniProt Q9H0H5); test: blockers of MgcRacGAP-driven Rac1 GTP hydrolysis – biochemical, ADP Hunter fluorescence, primary and confirmatory, confirmation (AID 624330); format: functional
T4 sequence (Q9H0H5 whole entry): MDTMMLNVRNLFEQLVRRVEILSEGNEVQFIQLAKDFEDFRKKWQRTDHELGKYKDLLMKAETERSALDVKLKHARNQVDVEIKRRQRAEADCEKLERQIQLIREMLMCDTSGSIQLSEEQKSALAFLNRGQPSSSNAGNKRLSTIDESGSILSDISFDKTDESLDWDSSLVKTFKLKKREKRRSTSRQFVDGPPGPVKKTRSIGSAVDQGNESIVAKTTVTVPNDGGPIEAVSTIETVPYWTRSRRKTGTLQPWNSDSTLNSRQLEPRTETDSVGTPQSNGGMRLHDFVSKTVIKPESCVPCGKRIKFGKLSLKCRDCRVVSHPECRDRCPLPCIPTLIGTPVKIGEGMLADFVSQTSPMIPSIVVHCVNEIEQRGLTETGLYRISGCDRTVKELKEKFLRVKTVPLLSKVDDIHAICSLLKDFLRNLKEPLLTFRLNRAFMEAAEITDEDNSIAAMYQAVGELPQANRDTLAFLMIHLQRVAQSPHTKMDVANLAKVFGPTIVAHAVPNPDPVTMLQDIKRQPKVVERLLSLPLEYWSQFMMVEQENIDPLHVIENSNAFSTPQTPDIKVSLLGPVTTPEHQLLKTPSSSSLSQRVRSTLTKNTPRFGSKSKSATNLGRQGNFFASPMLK

[15] = biological target: Induced myeloid leukemia cell differentiation protein Mcl-1 (Homo sapiens, UniProt Q07820); format: functional
[16] = biological target: T5, Histone-lysine N-methyltransferase NSD2 (Homo sapiens, UniProt O96028); format: biochemical
T5 sequence (O96028 whole entry): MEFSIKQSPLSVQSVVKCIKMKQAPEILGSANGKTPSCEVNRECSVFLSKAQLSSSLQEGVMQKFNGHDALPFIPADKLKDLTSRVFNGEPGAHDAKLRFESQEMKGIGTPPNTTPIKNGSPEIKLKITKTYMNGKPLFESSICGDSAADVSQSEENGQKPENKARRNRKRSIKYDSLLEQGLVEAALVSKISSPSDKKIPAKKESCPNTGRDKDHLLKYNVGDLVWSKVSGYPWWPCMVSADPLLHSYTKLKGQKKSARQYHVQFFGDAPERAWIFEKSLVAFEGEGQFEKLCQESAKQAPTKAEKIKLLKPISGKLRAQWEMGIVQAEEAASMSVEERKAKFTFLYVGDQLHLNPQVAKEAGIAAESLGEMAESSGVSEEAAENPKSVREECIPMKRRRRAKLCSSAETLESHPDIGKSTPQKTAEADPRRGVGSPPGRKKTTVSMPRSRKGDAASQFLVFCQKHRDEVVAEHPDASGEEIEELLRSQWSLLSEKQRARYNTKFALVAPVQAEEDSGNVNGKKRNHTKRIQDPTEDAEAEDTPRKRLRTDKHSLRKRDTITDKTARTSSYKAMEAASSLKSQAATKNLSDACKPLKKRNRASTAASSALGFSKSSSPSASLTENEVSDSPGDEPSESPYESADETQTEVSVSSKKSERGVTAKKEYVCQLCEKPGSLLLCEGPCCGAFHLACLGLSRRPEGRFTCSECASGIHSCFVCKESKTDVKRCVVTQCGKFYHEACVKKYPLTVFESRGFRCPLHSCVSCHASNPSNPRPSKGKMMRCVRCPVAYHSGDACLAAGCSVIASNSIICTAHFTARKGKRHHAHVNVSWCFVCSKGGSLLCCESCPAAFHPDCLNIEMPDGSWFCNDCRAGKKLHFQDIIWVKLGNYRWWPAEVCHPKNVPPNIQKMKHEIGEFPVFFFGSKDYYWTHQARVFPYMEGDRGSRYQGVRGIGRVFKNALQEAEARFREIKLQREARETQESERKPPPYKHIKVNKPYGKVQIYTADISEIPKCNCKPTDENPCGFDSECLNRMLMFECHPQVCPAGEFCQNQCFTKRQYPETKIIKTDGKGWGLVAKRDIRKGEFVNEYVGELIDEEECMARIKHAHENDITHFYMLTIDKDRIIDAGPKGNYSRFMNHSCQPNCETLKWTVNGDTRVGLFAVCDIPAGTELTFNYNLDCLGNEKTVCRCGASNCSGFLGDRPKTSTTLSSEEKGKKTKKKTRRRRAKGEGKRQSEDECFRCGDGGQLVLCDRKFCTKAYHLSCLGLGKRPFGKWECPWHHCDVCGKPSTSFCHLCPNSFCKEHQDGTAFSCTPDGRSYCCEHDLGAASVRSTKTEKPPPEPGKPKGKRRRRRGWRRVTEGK

Chain of Induced myeloid leukemia cell differentiation protein Mcl-1 (Q07820 whole entry): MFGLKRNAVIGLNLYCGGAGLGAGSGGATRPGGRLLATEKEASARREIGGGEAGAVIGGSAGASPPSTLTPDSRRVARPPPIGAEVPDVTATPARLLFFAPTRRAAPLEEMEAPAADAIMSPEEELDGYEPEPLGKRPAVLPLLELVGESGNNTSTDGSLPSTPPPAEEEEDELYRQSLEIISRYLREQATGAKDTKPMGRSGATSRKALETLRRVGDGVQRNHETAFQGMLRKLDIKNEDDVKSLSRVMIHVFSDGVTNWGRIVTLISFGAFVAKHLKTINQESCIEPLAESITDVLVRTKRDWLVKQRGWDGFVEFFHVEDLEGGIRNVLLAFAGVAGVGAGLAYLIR
Chain of Nonstructural protein 1 (Q194T2 whole entry): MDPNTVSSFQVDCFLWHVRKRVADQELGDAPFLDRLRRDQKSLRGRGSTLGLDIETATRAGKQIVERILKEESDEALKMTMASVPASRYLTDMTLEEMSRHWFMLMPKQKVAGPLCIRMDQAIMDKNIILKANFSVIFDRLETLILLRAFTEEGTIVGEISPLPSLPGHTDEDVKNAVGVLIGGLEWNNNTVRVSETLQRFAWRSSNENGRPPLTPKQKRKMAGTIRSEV
Chain of Eukaryotic translation initiation factor 4E (P63073 whole entry): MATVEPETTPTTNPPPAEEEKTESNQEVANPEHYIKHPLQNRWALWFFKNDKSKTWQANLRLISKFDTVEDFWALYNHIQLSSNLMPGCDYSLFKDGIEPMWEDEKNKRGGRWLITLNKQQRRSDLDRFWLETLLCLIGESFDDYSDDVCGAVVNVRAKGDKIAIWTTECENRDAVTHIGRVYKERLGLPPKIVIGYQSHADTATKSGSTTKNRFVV
Chain of Disintegrin and metalloproteinase domain-containing protein 17 (P78536 whole entry, the tested form may be a part): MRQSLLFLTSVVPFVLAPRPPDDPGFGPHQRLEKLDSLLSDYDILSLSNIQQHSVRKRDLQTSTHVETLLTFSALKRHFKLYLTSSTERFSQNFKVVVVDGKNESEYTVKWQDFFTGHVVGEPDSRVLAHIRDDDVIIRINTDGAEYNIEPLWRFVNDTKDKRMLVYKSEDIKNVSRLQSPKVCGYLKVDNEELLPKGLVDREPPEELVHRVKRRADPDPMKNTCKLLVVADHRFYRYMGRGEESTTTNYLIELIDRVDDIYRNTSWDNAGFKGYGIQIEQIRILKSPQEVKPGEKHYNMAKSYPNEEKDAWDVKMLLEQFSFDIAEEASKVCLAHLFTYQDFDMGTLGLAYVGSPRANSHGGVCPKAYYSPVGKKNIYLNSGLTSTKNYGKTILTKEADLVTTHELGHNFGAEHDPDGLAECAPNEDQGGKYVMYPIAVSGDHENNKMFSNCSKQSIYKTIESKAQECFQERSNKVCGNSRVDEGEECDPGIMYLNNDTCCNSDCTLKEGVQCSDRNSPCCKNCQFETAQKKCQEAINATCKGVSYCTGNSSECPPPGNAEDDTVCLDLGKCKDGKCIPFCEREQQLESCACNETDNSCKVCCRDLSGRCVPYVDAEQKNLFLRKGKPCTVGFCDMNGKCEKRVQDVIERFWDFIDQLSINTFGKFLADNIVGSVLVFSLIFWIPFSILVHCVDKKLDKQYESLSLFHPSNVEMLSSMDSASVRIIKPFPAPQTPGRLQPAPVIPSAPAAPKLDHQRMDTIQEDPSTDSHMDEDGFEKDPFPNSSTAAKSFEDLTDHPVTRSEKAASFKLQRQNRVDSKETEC
Chain of Large T antigen (P03070 whole entry): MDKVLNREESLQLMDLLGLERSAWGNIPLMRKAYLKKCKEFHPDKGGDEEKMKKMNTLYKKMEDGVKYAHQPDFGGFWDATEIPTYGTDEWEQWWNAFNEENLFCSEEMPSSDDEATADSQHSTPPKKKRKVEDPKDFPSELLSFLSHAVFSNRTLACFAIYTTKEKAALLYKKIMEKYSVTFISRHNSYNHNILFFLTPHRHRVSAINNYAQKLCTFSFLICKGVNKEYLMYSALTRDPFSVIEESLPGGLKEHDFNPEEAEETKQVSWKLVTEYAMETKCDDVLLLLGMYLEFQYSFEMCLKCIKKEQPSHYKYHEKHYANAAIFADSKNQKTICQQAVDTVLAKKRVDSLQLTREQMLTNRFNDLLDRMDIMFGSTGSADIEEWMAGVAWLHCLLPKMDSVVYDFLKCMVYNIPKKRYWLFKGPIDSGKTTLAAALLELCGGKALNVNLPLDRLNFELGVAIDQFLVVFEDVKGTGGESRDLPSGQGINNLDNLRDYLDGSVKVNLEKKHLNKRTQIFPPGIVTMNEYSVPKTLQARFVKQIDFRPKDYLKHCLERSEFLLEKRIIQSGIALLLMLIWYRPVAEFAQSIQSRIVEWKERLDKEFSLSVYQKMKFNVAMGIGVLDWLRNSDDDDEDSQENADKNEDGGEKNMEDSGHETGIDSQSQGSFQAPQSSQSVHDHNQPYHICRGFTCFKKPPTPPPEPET

Cc1ccc(NC(=O)C2CC(=O)Nc3nncn32)cc1 (configuration not stated)
EC50 [1]: > 67.6 µM (inactive) | IC50 [2]: > 67.6 µM (inactive)

Fc1cccc(Cl)c1Cc1noc(/C=C/c2ccccc2)n1
EC50 [3]: 70.3 µM (active) | EC50 [4]: > 12 µM (not active) | EC50 (H4): 4.36 µM (active) | EC50 [5]: > 12 µM (not active) | EC50 [6]: < 0.1 µM (active) | EC50 [7]: > 12 µM (not active)

O=C1Cc2ccccc2C(=O)N1c1ccc(F)cc1Cl
IC50 [8]: > 100 µM (inactive) | IC50 [9]: 4.41 µM (active) | AC50 (Caspase-6): 20.4 µM (active)

Nc1nonc1OCCCCOc1nonc1N
EC50 [1]: > 67.6 µM (inactive) | IC50 [2]: > 67.6 µM (inactive)

COc1ccc(S(=O)(=O)N(C)C[C@@H]2OCCCC[C@H](C)Oc3ccc(NC(=O)Nc4ccc(C(F)(F)F)cc4)cc3C(=O)N([C@H](C)CO)C[C@H]2C)cc1
IC50 [10]: > 69.5 µM (inactive) | IC50 [11]: > 69.5 µM (inactive)

CCCNC(=O)Nc1ccc2c(c1)C(=O)N(C)[C@@H]1CC[C@H](CC(=O)O)O[C@H]1CO2
AC50 [12]: 1.82 µM (active)

CN(C)c1ccc(/N=c2/sc3ccccc3n2C)cc1
IC50 [13]: > 64 µM (inactive) | IC50 (Large T antigen): 11.4 µM (active) | IC50 (Nonstructural protein 1): 23.9 µM (active) | IC50 [14]: 18.9 µM (active) | IC50 [15]: 40.2 µM (active) | AC50 [16]: 10.4 µM (active)
